System: adjuvant arthritis of Lewis rats
Experiment: Suppression of adjuvant arthritis in Lewis rats (hind leg sole edema, Mycobacterium butyricum)
Assay type: in vivo
Details: Rattus norvegicus, 432 h, 100 mg/kg oral once a day, 18 days after sensitization; for inhibition in vivo at 100 mg/kg: edema increase vs control group, t-test *P<0.05, **P<0.02, ***P<0.01; for change in vivo at 100 mg/kg: percent increase vs volume before sensitization, control 130.9 ± 5.1 (Table 1), 137.6 ± 15.7 (Table 2), 131.0 ± 10.0 (Table 3), read-out: Increase in volume due to edema
Method: The compounds according to the present invention obtained in the Examples were evaluated for their effects against adjuvant arthritis (diseased animal model for chronic articular rheumatism) of Lewis rats.
In the Experiment, five six week old male Lewis rats (body weight, 130 to 160 g) were treated as one group.
To right hind leg sole of rats from each group was subcutaneously injected with 0.2 mg of dry culture of Mycobacterium butyricum suspended in liquid paraffin. The compounds were suspended in 5% Tween 80, and the suspensions were orally administered to the rats once a day from the day next to the day of sensitization. The rats of both the medicated groups and the control group (non-medicated group) were intermittently measured for their volume of edema in their hind leg sole to examine the effects of the compounds for suppressing the adjuvant arthritis.
Percent increase in the volume of the hind leg sole due to the edema was calculated on the basis of the volume before sensitization, and suppression was determined by comparing the percent increase of the medicated group with that of the control group.

Compound | inhibition in vivo at 100 mg/kg | change in vivo at 100 mg/kg
CCCCCCCCSCCNC(=O)c1ccc(OC)c(CCC)c1O [XX, 2-(2'-hydroxy-3'-n-propyl-4'-methoxybenzoylamino)ethyl-n-octylsulfide] | 21.1% | 103 ± 8.8%
CCCCCCCCSCCNC(=O)c1ccc(OC)cc1O [XIX, 2-(2'-hydroxy-4'-methoxybenzoylamino)ethyl-n-octylsulfide] | 41.4% | 76.8 ± 17.8%
COc1ccc(C(=O)NC2=NCCS2)c(O)c1 [XIII, 2-(2-hydroxy-4-methoxybenzoylamino)thiazoline] | 23.5% | 100 ± 3.1%
CCCc1c(OC)ccc(C(=O)N2CCSCC2)c1O [XIV, N-(2-hydroxy-3-n-propyl-4-methoxybenzoyl)thiomorpholine] | 21.5% | 103 ± 10%
CCCc1c(OC)ccc(C(=O)NCCS)c1O [XVIII] | 30.1% | 91.6 ± 10.9%
COc1ccc(C(=O)NCCS)c(O)c1 [XVII, N-(2-hydroxy-4-methoxybenzoyl)cysteamine] | 38.4% | 84.8 ± 10.4%
CCCc1c(OC)ccc(C(=O)NCc2cccs2)c1O [XVI, N-(2-hydroxy-3-n-propyl-4-methoxybenzoyl)-2-thiophenemethylamine] | 34.4% | 85.9 ± 11.1%
CCCc1c(OC)ccc(C(=O)N2CCSC2)c1O [XV, N-(2-hydroxy-3-n-propyl-4-methoxybenzoyl)thiazolidine] | 27% | 95.6 ± 9.6%
